{"source": "paper PMC6468747", "about": "(Cancers, 2019)", "key": {"mTORC1 signaling": {"tested_on": "mTORC1 signaling", "assay": "Western blot of mTORC1 signaling in MDA-MB-231 and MDA-MB-468 cells", "assay_type": "cell-based, human", "details": "72 h", "procedure": "MDA-MB-231, MDA-MB-468, MDA-MB-436, MDA-MB-453, HCC-1806, and MFM-223 cells were purchased from American Type Culture Collection (ATCC, Manassas, VA, USA), and authenticated at the Biopolymer/Genomics Core Facility, University of Maryland Baltimore. Cells were tested for mycoplasma contamination at the University of Maryland Marlene and Stewart Greenebaum Cancer Center (UMGCC) Translational Shared Service. Cells were cultured in the recommended media supplemented with 10% FBS and plated 1 day prior to treatment. Cells were treated with the indicated dose and time in the figure at 37 °C in 5% CO2. Protein lysates were harvested in RIPA lysis buffer (Sigma). Western blotting was done as described previously with antibodies described above."}, "MDA-MB-231 cells": {"tested_on": "MDA-MB-231 cells", "assay": "Multiplex Luminex supernatant cytokine analysis", "assay_type": "cell-based, human", "details": "72 h, cell supernatants", "procedure": "Supernatants from the MDA-MB-231 (TNBC) cells in Fetal Bovine Serum (FBS) containing media were treated with various concentrations of VNLG-12R for 72 h, were collected, and various cytokines and growth factor concentrations (CLCX-1, IL-6, IL8 and TNF-α) were determined by Luminex multiplex assay kit (Millipore, Billerica, MA, USA) according to the manufacturer’s instructions. The expressions of secreted cytokines were read on Luminex 100 reader. The data was then analyzed using the BioPlex Software (BioRad, Hercules, CA, USA). The Luminex multiplex assays were conducted at the University of Maryland School of Medicine Cytokine Core Laboratory (Baltimore, MD, USA)."}, "Br-001 xenograft tumors": {"tested_on": "Br-001 xenograft tumors", "assay": "Patient-derived TNBC xenograft (PDX), PO, racemate vs E1", "assay_type": "in vivo, NSG mice", "details": "20 mg/kg PO", "procedure": "The second PDX tumor model experiment was conducted to assess the efficacy of VNLG-152R versus VNLG-152E1 following PO administration. When the tumor volumes had reached about 100 mm^3, the mice were randomly divided into three groups of five mice each. The control group received vehicle (PO) and the other two groups received VNLG-152R (20 mg/kg, PO, once daily), and VNLG-152E1 (20 mg/kg, PO, once daily) five days/week. These treatments continued for 15 days and the tumors were measured and processed as described above."}}}
{"smiles": "CC1=C(/C=C/C(C)=C/C=C/C(C)=C/C(=O)Nc2ccc(F)cc2)C(C)(C)CCC1n1ccnc1", "note": "(racemic) [VNLG-152R, 4-(±)-(1H-imidazol-1-yl)-N-(4-fluorophenyl)-(E)-retinamide]", "values": [{"measurement": "depletion of p-mTOR (Ser2448), p4E-BP1, peIF4E and p-p70 S6K", "setting": "mTORC1 signaling", "value": "strong dose-dependent depletion"}, {"measurement": "secreted IL-6 and IL-8, TNFα and chemokine CXCL1", "setting": "MDA-MB-231 cells", "value": "dose-dependent reduction"}, {"measurement": "changes in body weights", "setting": "Br-001 xenograft tumors", "value": "No changes in body weights were observed"}, {"measurement": "TGI", "setting": "Br-001 xenograft tumors; 5 days per week, 15 days", "value": 82, "unit": "%"}]}
